Data on 17 compounds can be found in ChEMBL document CHEMBL2434925, “Synthesis and antiviral activity of a novel class of (5-oxazolyl)phenyl amines” (Eur J Med Chem, 2013).

Data set [1] can be described thus: Cytotoxicity against human Huh7.5 cells after 96 hrs by MTT assay. It is filed as cell-based, Huh-7.
In data set [2] the test system is Hepatitis C virus. Description: Antiviral activity against HCV expressing pFL-J6/JFH/JC1 infected in human Huh7.5 cells assessed as inhibition of viral RNA synthesis after 96 hrs by one-step RT-PCR analysis. It counts as functional, organism-based, Hepacivirus hominis. To be noted: Huh-7, 96 h.
Data set [3] deals with Huh-7. The experiment in a line: (§1) Selectivity index, ratio of CC50 for human Huh7.5 cells to IC50 for HCV expressing pFL-J6/JFH/JC1. It is filed as functional.
Data set [4] in a line: Selectivity index, ratio of CC50 for african green monkey Vero cells to IC50 for Coxsackie B3 virus Nancy. It counts as functional.
Data set [5] in a line: Selectivity index, ratio of CC50 for african green monkey Vero cells to IC50 for Coxsackie B3 virus Schmitt. It counts as functional.
The test system of data set [6] is Coxsackievirus B3. Description: Antiviral activity against Coxsackie B3 virus Nancy in african green monkey Vero cells assessed as inhibition virus-induced cytopathic effect after 48 hrs. It is filed as functional, organism-based. The conditions noted are these: Enterovirus B.
The subject of data set [7] is Coxsackievirus B6. Description: Antiviral activity against Coxsackie B6 virus Schmitt in african green monkey Vero cells assessed as inhibition virus-induced cytopathic effect after 48 hrs. It counts as functional, organism-based. The conditions noted are these: Enterovirus B. (Damage to the host cells serves as the signal in cytopathic effect assays.)
Data set [8] can be described thus: Cytotoxicity against african green monkey Vero cells after 96 hrs by MTT assay. The conditions noted are these: chlorocebus sabaeus. It counts as cell-based. A general note: Tetrazolium assays rely on reduction of a dye to a coloured formazan, in cell work by metabolically active cells.
Data set [9] can be described thus: as §1. It is filed as functional, Huh-7.

For `CCC[C@H](NC(=O)[C@@H]1[C@H]2CCC[C@H]2CN1C(=O)[C@@H](NC(=O)[C@@H](NC(=O)c1cnccn1)C1CCCCC1)C(C)(C)C)C(=O)C(=O)NC1CC1` [TELAPREVIR], the CC50 (as a rule, the concentration giving 50% cytotoxicity) at 96 h in data set [1] came to 37.5 µM. The half-maximal inhibitory concentration (IC50) (as a rule, the midpoint of a concentration-inhibition curve) in [2] was less than 0.14 µM. The Ratio CC50/IC50 in data set [3] is greater than 268.

Turning to `COc1cc(/N=C/c2ccc(F)cc2)ccc1-c1cnco1`, the figures for the CC50 at 96 h in [1] and in data set [8] were greater than 100 µM and 324 µM, respectively. The figures for the “Ratio CC50/IC50” value in data set [4], in [5] and in data set [9] were 7.5, 5.6 and greater than 84.8, respectively. Besides, the concentration for half-maximal inhibition (IC50) was determined as 43.3 µM in data set [6], 58.2 µM in data set [7] and 1.18 µM in data set [2].

In the case of `COc1cc(NCc2cc3ccccc3s2)ccc1-c1cnco1`, the CC50 at 96 h worked out at 29 µM in data set [1] and 7.36 µM in data set [8]. The “Ratio CC50/IC50” value in data set [4] is 5.3; in data set [5], 6.9; in data set [9], 57.9. Besides, the concentration for half-maximal inhibition (IC50) in [6] was 1.39 µM; in [7] it was 1.07 µM; in data set [2], 0.5 µM.

For `COc1cc(NCc2ccc(Cl)s2)ccc1-c1cnco1`, the results for the half-maximal cytotoxic concentration (CC50) at 96 h in [1] and in [8] were 43.2 µM and 53.8 µM, respectively. Moreover, the “Ratio CC50/IC50” value in data set [4] amounted to 39.3; in data set [5] it was 64; in data set [9], 130.8. Besides, the concentration for half-maximal inhibition (IC50) in data set [6] worked out at 1.37 µM; in [7], 0.84 µM; in data set [2], 0.33 µM.

For the compound `COc1cc(NCc2ccc(OC)c(OC)c2OC)ccc1-c1cnco1`, the results for the CC50 at 96 h in data set [1] and in data set [8] were 32 µM and 28.8 µM, respectively. The “Ratio CC50/IC50” value in data set [4] turned out to be 39.5; in data set [5], 17; in data set [9], 48.4. Besides, the concentration for half-maximal inhibition (IC50) in data set [6] turned out to be 0.73 µM; in data set [7], 1.7 µM; in [2] it was 0.66 µM.

As to `COc1cc(NCc2ccc(C(=O)O)s2)ccc1-c1cnco1`, the figures for the cytotoxic concentration (CC50) at 96 h in [1] and in data set [8] were greater than 100 µM and 350 µM, respectively. For the same compound, the “Ratio CC50/IC50” value in [4] was 5.2; in [5] it was 6.2; in [9] it was greater than 4.5. Further, the IC50 in data set [6] was found to be 67.3 µM; in data set [7], 56 µM; in data set [2], 22.4 µM.

Turning to `COc1ccc(O)c(CNc2ccc(-c3cnco3)c(OC)c2)c1`, the CC50 at 96 h was greater than 100 µM in data set [1] and 98.2 µM in data set [8]. The “Ratio CC50/IC50” value is recorded as 9.9 in data set [4], 4.3 in data set [5] and greater than 10.1 in data set [9]. In addition, the IC50 in data set [6] is 9.96 µM; in [7], 22.7 µM; in [2], 9.95 µM.

As for `CCc1ccc(CNc2ccc(-c3cnco3)c(OC)c2)s1`, the half-maximal cytotoxic concentration (CC50) at 96 h in data set [1] was determined as 39.1 µM; in data set [8], 13.6 µM. Besides, the “Ratio CC50/IC50” value in data set [4] was 6.8; in data set [5], 3; in data set [9], 19.8. Besides, the IC50 in data set [6] came to 2 µM; in [7] it was 4.55 µM; in data set [2] it was 1.98 µM.

As to `COc1cc(NCc2csc3ccccc23)ccc1-c1cnco1`, the CC50 at 96 h in [1] came to 23.6 µM; in data set [8], 12.7 µM. Further, the “Ratio CC50/IC50” value is reported as 6.8 in data set [4], 5.2 in [5] and less than 19.1 in [9]. The IC50 was 1.87 µM in data set [6], 2.43 µM in data set [7] and greater than 1.24 µM in data set [2].

As to `COc1c(C)c2c(c(O)c1C/C=C(\C)CCC(=O)O)C(=O)OC2` [MYCOPHENOLIC ACID], the CC50 at 96 h is greater than 100 µM in data set [1] and 624 µM in [8]. Besides, the entries for the “Ratio CC50/IC50” value in [4], in data set [5] and in [9] were 61.5, 9 and greater than 24, respectively. For the same compound, the IC50 in data set [6] turned out to be 10.2 µM; in data set [7] it was 69.4 µM; in data set [2], 4.16 µM.

As for `COc1ccc(CNc2ccc(-c3cnco3)c(OC)c2)cc1`, the CC50 at 96 h was determined as 41.3 µM in data set [1] and 23.9 µM in data set [8]. The “Ratio CC50/IC50” value stood at 27.5 in data set [4], 7 in data set [5] and 29.5 in data set [9]. The IC50 in data set [6] amounted to 0.87 µM; in [7], 3.42 µM; in [2], 1.4 µM.

For the compound `COc1ccc(-c2cnco2)cc1NCc1ccc(C)s1`, the CC50 at 96 h in data set [1] worked out at 52.9 µM; in data set [8] it was 42.7 µM. Moreover, the “Ratio CC50/IC50” value was determined as 5.2 in data set [4], 3.4 in data set [5] and 21.9 in data set [9]. Moreover, the values for the IC50 in [6], in data set [7] and in data set [2] were 8.22 µM, 12.8 µM and 2.42 µM, respectively.

For the compound `COc1cc(NCc2ccc(C)o2)ccc1-c1cnco1`, the CC50 at 96 h in [1] was found to be 63.4 µM; in [8] it was 45.1 µM. Besides, the “Ratio CC50/IC50” value was determined as 9 in data set [4], 6.7 in data set [5] and 62.8 in [9]. The IC50 in [6] is 5.01 µM; in data set [7], 6.78 µM; in data set [2], 1.01 µM.

On to `COc1cc(NCc2cncs2)ccc1-c1cnco1`, for which the results for the CC50 at 96 h in data set [1] and in data set [8] were 68.9 µM and 232 µM, respectively. The results for the “Ratio CC50/IC50” value in data set [4], in data set [5] and in data set [9] were 11.8, 20.5 and 94.4, respectively. Besides, the IC50 was 19.6 µM in data set [6], 11.3 µM in data set [7] and 0.73 µM in data set [2].

Regarding `COc1cc(NCc2cccs2)ccc1-c1cnco1`, the CC50 at 96 h was found to be 51.3 µM in data set [1] and 17.9 µM in data set [8]. Further, the results for the “Ratio CC50/IC50” value in data set [4], in data set [5] and in data set [9] were 19.1, 11.7 and 183.3, respectively. In addition, the IC50 was determined as 0.94 µM in data set [6], 1.54 µM in data set [7] and 0.28 µM in data set [2].

As to `COc1cc(NCc2ccc(Br)s2)ccc1-c1cnco1`, the results for the CC50 at 96 h in data set [1] and in data set [8] were 39.4 µM and 47.3 µM, respectively. For the same compound, the “Ratio CC50/IC50” value is recorded as 9.2 in data set [4], 39.4 in [5] and less than 10.5 in data set [9]. The values for the 50% inhibitory concentration (IC50) in data set [6], in data set [7] and in data set [2] were 5.14 µM, 1.2 µM and greater than 3.75 µM, respectively.

Consider `COc1cc(NCc2ccc(C)s2)ccc1-c1cnco1`, for which the cytotoxic concentration (CC50) at 96 h is 34.4 µM in data set [1] and 24.7 µM in data set [8]. Besides, the “Ratio CC50/IC50” value was determined as 7 in data set [4], 11.8 in data set [5] and 16.8 in data set [9]. In addition, the IC50 in data set [6] turned out to be 3.52 µM; in data set [7], 2.1 µM; in data set [2], 2.05 µM.
